Test results as given in patent publication US10265318B2, “Medicinal drug with activity against gram positive bacteria, mycobacteria and fungi” (priority 2015, dated 2019).

Assays:
bacteria and fungi = test: Antimicrobial activity, overall comparison of the substances; type: cell-based
[1] = test system: biofilms of S. aureus ATCC 29213; test: 24-hour action upon 24-hour biofilms in 96-well plates, CFU count; details: S. aureus ATCC 29213 biofilm
Text: (§1) Biofilms used in testing were produced by 24-hour cultivation in 96-well plates.

VRSA strain VT-V-18 = test: MIC, broth macrodilution (CLSI); details: planktonic, inoculum 10^5 cfu/mL
Experimental: (§2) The MICs were determined using a broth macrodilution method with cation-adjusted Mueller-Hinton broth II (Becton Dickinson) at standard inoculum (10^5 cfu/mL) following the CLSI recommendations.

VRSA strain VT-E-25 = test: MIC, broth macrodilution (CLSI); details: planktonic, inoculum 10^5 cfu/mL
Experimental: as §2

[2] = test system: biofilms of S. aureus MRSA 201/010; test: 24-hour action upon 24-hour biofilms in 96-well plates, CFU count; details: S. aureus MRSA 201/010 biofilm
Text: as §1

VRSA strain VT-A-199 = test: MIC, broth macrodilution (CLSI); details: planktonic, inoculum 10^5 cfu/mL
Experimental: as §2

[3] = test system: biofilms of S. aureus MRSA 24/31; test: 24-hour action upon 24-hour biofilms in 96-well plates, CFU count; details: S. aureus MRSA 24/31 biofilm
Text: as §1

MSSA strain ATCC 29213 = test: MIC, broth macrodilution (CLSI); type: cell-based, S. aureus; details: planktonic, inoculum 10^5 cfu/mL
[4] = test system: Aspergillus fumigatus ATCC 204305; test: MIC, broth microdilution or agar dilution (CLSI); type: cell-based; details: A. fumigatus ATCC 204305
[5] = test system: Candida albicans ATCC 10231; test: MIC, broth microdilution or agar dilution (CLSI); type: cell-based; details: C. albicans ATCC 10231
S. aureus MRSA 24/31 = test: MIC, broth microdilution or agar dilution (CLSI); type: cell-based, Staphylococcus aureus
S. aureus MRSA 201/010 = test: MIC, broth microdilution or agar dilution (CLSI); type: cell-based, Staphylococcus aureus

O=Cc1cc(Br)cc(Br)c1[O-].[Na+] [Compound 17, 2-formyl-4,6-dibromo sodium phenolate]
antimicrobial activity, comparison among the inventive substances (bacteria and fungi): best activity

O=C1NC(=O)C(=Cc2cc(Br)cc(Br)c2O)C(=O)N1 [Compound 1, 5-(3,5-dibromo-2-hydroxybenzylidene) perhydropyrimidine-2.4,6-trione]
decrease of the number of CFU in biofilm ([1]; 24-hour action): 10,000 times | VRSA strain MIC, VT-V-18 (VRSA strain VT-V-18): 0.7 µg/mL | VRSA strain MIC, VT-E-25 (VRSA strain VT-E-25): 1.5 μg/ml | antimicrobial activity, comparison among the inventive substances (bacteria and fungi): best activity | decrease of the number of CFU in biofilm ([2]; 24-hour action): 10,000 times | VRSA strain MIC, VT-A-199 (VRSA strain VT-A-199): 0.07 µg/mL | decrease of the number of CFU in biofilm ([3]; 24-hour action): 10,000 times | MSSA strain MIC, ATCC 29213 (MSSA strain ATCC 29213): 0.7 µg/mL

O=Cc1cc(Br)cc([N+](=O)[O-])c1[O-].[K+] [Compound 19, 2-formyl-4-bromo-6-nitro potassium phenolate]
antimicrobial activity, comparison among the inventive substances (bacteria and fungi): best activity

COc1ccc(CN2C(=O)NC(=O)C(=Cc3cc(Br)cc(Br)c3O)C2=O)cc1 [Compound 15, 1-(4-methoxybenzyl)-5-(3,5-dibromo-2-hydroxybenzylidene) perhydropyrimidine-2.4,6-trione]
antimicrobial activity, comparison among the inventive substances (bacteria and fungi): best activity

CC1(C)SC2C(NC(=O)[C@H](N)c3ccccc3)C(=O)N2C1C(=O)O (stereo partly drawn) [ampicillin, 6-[[(2R)-aminophenylacetyl]amino]-3,3-dimethyl-7-oxo-4-thia-1-azabicyclo[3.2.0]heptane-2carboxylic acid]
decrease of the number of CFU in biofilm ([1]; 10 mg/l): 10 times | MIC [4]: no effect | effect on the number of CFU in biofilm ([2]; 10 mg/l): no effect whatsoever | MIC [5]: no effect | MIC (S. aureus MRSA 24/31): no effect | MIC (S. aureus MRSA 201/010): no effect | effect on the number of CFU in biofilm ([3]; 10 mg/l): no effect whatsoever
